Results taken from patent US9408853B2, “Iridium/rhodium anti-cancer compounds” (University of Warwick, priority 2010, dated 2016).

What was measured:
[1] = test system: MCF-7 cancer cell line; conditions: cited from earlier work
[2] = test system: human ovarian A2780 cancer cells; assay: Cancer cell cytotoxicity, SRB assay; assay type: cell-based; conditions: 24 h exposure, 72 h recovery, SRB; read-out: A2780 IC50
Method: Cancer Cell Cytotoxicity. After plating, human ovarian A2780 cancer cells were treated with Ir^III complexes on day 3 at concentrations ranging from 0.5 μM to 100 μM. Solutions of the Ir^III complexes were made up in 0.125% DMSO to assist dissolution. Stock solutions of the IrIII complexes were firstly prepared in DMSO to assist dissolution, and then diluted into 0.9% saline and medium. After plating 5000 A2780 cells per well on day 1, IrIII complexes were added to the cancer cells on day 3 at concentrations ranging from 0.05 μM to 100 μM. Cells were exposed to the complexes for 24 h, washed, supplied with fresh medium, allowed to grow for three doubling times (72 h), and then the protein content measured (proportional to cell survival) using the sulforhodamine B (SRB) assay.^15 […]. The standard errors are based on two independent experiments of three replicates each.

[3] = Hydrolysis studies of C,N-chelated complexes and anation by NaCl (1H NMR); assay type: physicochemical; conditions: 20% MeOD-d4/80% D2O; equilibrium reached within ~5 min even at 278 K
Excerpt: Hydrolysis Studies. The hydrolysis of complexes [(η^5-C5Me5)Ir(2-phpy)Cl] (ZL47), [(η^5-C5Me4C6H4C6H5)Ir(2-phpy)Cl] (ZL49), [(η^5-C5Me5) Ir(2-phq)Cl] (ZL68), [(η^5-C5Me5) Ir(tpy)Cl] (ZL69), [(η^5-C5Me5)Ir(2-dfphpy)Cl] (ZL74) and [(η^5-C5Me4C6H5)Ir(2-phpy) Cl] (ZL107) in 20% MeOD-d4/80% D2O (v/v) was monitored by ^1H NMR at different temperatures. The presence of methanol ensured the solubility of the complexes.

[4] = test system: 9-ethylguanine (9-EtG); assay: Interactions with nucleobases: 9-EtG adduct formation (1H NMR); assay type: binding; conditions: 310 K; for guanine adducts formed: 24 h, ca. 1.0 mM, 1 mol equiv 9-EtG, 20% MeOD-d4/80% D2O
Method: (§1) Interactions with Nucleobases. The reaction of ZL01, ZL03, ZL04, ZL07, ZL25, ZL33, ZL37, ZL38, ZL43 and ZL54 and ZL33A with nucleobases typically involved addition of a solution containing 1-2 mol equiv of nucleobase in D2O, to an equilibrium solution of ZL01, ZL03, ZL04, ZL07, ZL25, ZL33, ZL37, ZL38, ZL43, ZL54 and ZL33A in a solution of 5% MeOD-d4/95% D2O (v/v). ^1H NMR spectra of these solutions were recorded at 310 K after various time intervals.
(§2) Since DNA is a potential target site for transition metal anticancer complexes,^18 nucleobase binding reactions of compounds ZL01, ZL03, ZL04, ZL07, ZL25, ZL33, ZL33A, ZL37, ZL38, ZL43 and ZL54 with nucleobase models 9-ethylguanine (9-EtG) and 9-ethyladenine (9-EtA), were investigated. Solutions of ZL01, ZL03, ZL04, ZL07, ZL25, ZL33, ZL37, ZL38, ZL43 and ZL54 (1 mM) (containing an equilibrium mixture of these complexes and their respective aqua adducts) with 1 mol equivalent of 9-EtG or 9-EtA in D2O were prepared, and ^1H NMR spectra were recorded at different time intervals.
Interactions with Nucleobases. Since DNA is a potential target site for transition metal anticancer complexes,^23 the binding of 9-ethylguanine (9-EtG) to complexes ZL47, ZL49, ZL69, ZL74 and ZL107 was studied.

[5] = test system: ca. 60 cell lines within nine tumour type subpanels; assay type: cell-based
Excerpt: (§3) Six complexes, [(η^5-C5Me4C6H4C6H5)Ir(bpy)Cl]PF6 (ZL25, bpy=2,2′-bipyridine), [(η^5-C5Me4C6H5)Ir(phen)Cl]PF6 (ZL33, phen=1,10-phenanthroline), [(η^5-C5Me4C6H4C6H5) Ir(pico)Cl] (ZL43, pico=picolinate), [(η^5-C5Me5)Ir(2-phpy)Cl] (ZL47), [(η^5-C5Me4C6H4C6H5)Ir(2-phPY)(D2O)Cl] (ZL49) and [(η^5-C5Me4C6H4C6H5) Ir(phen)Cl]PF6 (ZL54), were selected by Developmental Therapeutics Program of National Cancer Institute (NCI, U.S.A.) for in vitro screening test, in which 5 complexes except ZL43 are selected for further testing. The five complexes were tested on ca. 60 cell lines within nine tumour type subpanels at five concentrations ranging from 0.01 to 100 μM.

[6] = test system: breast MDA-MB-468; assay: NCI screen, single cell line; assay type: cell-based
Excerpt: as §3

[7] = test system: colon COLO 205; assay: NCI screen, single cell line; assay type: cell-based
Excerpt: as §3

[8] = test system: melanoma SK-MEL-5; assay: NCI screen, single cell line; assay type: cell-based
Excerpt: as §3

[9] = test system: A2780 human ovarian cancer cells; assay: Cytotoxicity testing of rhodium complexes; assay type: cell-based
Method: Cytotoxicity testing in A2780 human ovarian cancer cells was performed by Dr Ana Maria Pizarro Arranz at the University of Warwick.

[10] = test system: HT-29 cancer cell line; conditions: cited from earlier work
[11] = Kinetics of hydrolysis followed by 1H NMR; assay type: physicochemical; conditions: for k (hydrolysis): 0.2 mM, 5% MeOD-d4/95% D2O, pH* 3
Method: Kinetics for Hydrolysis. Although complexes ZL01-ZL04, ZL07, ZL38 and ZL43 hydrolyzed too rapidly to monitor by ^1H NMR, The kinetics of hydrolysis for complexes ZL25, ZL33, ZL37 and ZL54 were followed by ^1H NMR at different temperatures. For this, solutions of the complexes with a final concentration of 0.2 mM in 5% MeOD-d4/95% D2O (v/v) were prepared by dissolution of the complexes in MeOD-d4 followed by rapid dilution using D2O with a pH* of about 3 (acidified with HClO4), so that the aqua ligand was not deprotonated. ^1H NMR spectra were taken after various time intervals. The rates of hydrolysis were determined by fitting plots of concentrations (determined from ^1H NMR peak integrals) versus time to a pseudo first-order equation using ORIGIN version 7.0. The Arrhenius activation energy (Ea), activation enthalpies (ΔH^¢), and activation entropy (ΔS^‡) for compounds ZL25, ZL33, ZL37 and ZL54 were determined from the slopes of the Arrhenius and intercepts of Eyring plots.
The rates of hydrolysis of compounds ZL01-ZL04, ZL07, ZL25, ZL33, ZL37, ZL38, ZL43 and ZL54 in a 5% MeOD-d4/95% D2O were monitored by ^1H NMR at different temperature from 278 to 298 K by the observation of new peaks over time due to aqua adduct formation. Five percent MeOD was used to improve solubility, and acidic conditions (D2O, pH* 3) were used to prevent the deprotonation of the aqua complex as a secondary reaction. […] The percentage of aqua peak formation for ZL25, ZL33, ZL37 and ZL54 was plotted against time and was fitted to pseudofirst order kinetics (FIG. 3), and their halflife times were calculated (Table 1). The Arrhenius activation energy (Ea), activation enthalpy (ΔH^¢), and activation entropy (ΔS^‡) of compound ZL25, ZL33, ZL37 and ZL54 are listed in Table 4. The large negative ΔS^‡value for compound ZL54 is notable. The extent of hydrolysis at equilibrium is medium for all compounds, ranged from 30% to 60%.

[12] = test system: 9-ethyladenine (9-EtA); assay: Interactions with nucleobases: 9-EtA adduct formation (1H NMR); assay type: binding; conditions: 1 mM, 1 mol equiv 9-EtA, D2O, 310 K
Method: as §1, §2

[13] = test system: A549 cancer cell line; assay: Cytotoxicity, MTT assay (Brabec group); assay type: cell-based
Method: (§4) The cytotoxicity test of ZL07, ZL33, ZL38 and ZL54 against A2780, SW480, A549 and CH1 cell lines was performed by Viktor Brabec group (Institute of Biophysics, Academy of Sciences of the Czech Republic). After plating, the cells were treated with ZL07, ZL33, ZL38 and ZL54. After 72h of incubation 10 μl of MTT (2.5 mg/ml; CALBIOCHEM) was added to each well and incubated for 4 h in culture conditions. At the end of the incubation period the medium was removed and the formazan product was dissolved in 100 μl DMSO. The cell viability was evaluated by measurement of the absorbance at 570 nm, using an Absorbance Reader SUNRICE TECAN SCHOELLER. […] All experiments were made in quadruplicate.

[14] = test system: CH1 cancer cell line; assay: Cytotoxicity, MTT assay (Brabec group); assay type: cell-based; conditions: 72 h incubation, MTT
Method: as §4

[15] = test system: SW480 cancer cell line; assay: Cytotoxicity, MTT assay (Brabec group); assay type: cell-based
Method: as §4

Cc1c(C)c(C)[c-](C)c1C.O=S(=O)([O-])C(F)(F)F.[Cl-].[Ir+3].c1cnc2c(c1)ccc1cccnc12 [[(η^5-C5Me5)Ir(phen)Cl](CF3SO3)]
in vitro cytotoxic activity towards MCF-7 (in words) [1]: inactive

Cc1c(C)c(C)[c-](C)c1C.NCCN.O=S(=O)([O-])C(F)(F)F.[Cl-].[Ir+3] [[(η^5-C5Me5) Ir(en)Cl](CF3SO3)]
in vitro cytotoxic activity towards MCF-7 (in words) [1]: inactive

Cc1c(C)c(C)[c-](C)c1C.[Cl-].[Ir+3].[c-]1ccccc1-c1ccc2ccccc2n1 [ZL68, [(η^5-C5Me5)Ir(2-phq)Cl]]
IC50 [2]: 2550 ± 30 nM | hydrolysis (in words) [3]: rapid hydrolysis

Cc1c(C)c(C)[c-](C)c1C.Fc1c[c-]c(-c2ccccn2)c(F)c1.[Cl-].[Ir+3] [ZL74, [(η^5-C5Me5)Ir(2-dfphpy)Cl]]
guanine adducts formed [4]: 100% | IC50 [2]: 6530 ± 500 nM | hydrolysis (in words) [3]: rapid hydrolysis

Cc1c(C)c(C)[c-](-c2ccc(-c3ccccc3)cc2)c1C.[Cl-].[Ir+3].[c-]1ccccc1-c1ccccn1 [ZL49, [(η^5-C5Me4C6H4C6H5)Ir(2-phpy)Cl]]
guanine adducts formed [4]: 100% | IC50 [2]: 700 nM | CC50 [5]: 7.08 ± 1.05 µM | Mean graph midpoint (MID) TGI ([5]; ca. 60 cell lines, 0.01 to 100 μM): 2.19 ± 0.15 µM | GI50 ([5]; ca. 60 cell lines, 0.01 to 100 μM, read-out: Mean graph midpoint (MID) GI50): 710 ± 10 nM | selectivity among tumour type subpanels (in words) ([5]; mean graphs): selective for leukemia, colon cancer, and melanoma | GI50 [6]: < 200 nM | GI50 [7]: < 200 nM | GI50 [8]: < 200 nM | hydrolysis (in words) [3]: rapid hydrolysis

[(Cp*)Rh(2-phenylbipyridyl)Cl]Cl [JS36]
relative activity against A2780 (in words) [9]: most active

CN(C)C(=S)N(C)C.Cc1c(C)c(C)[c-](C)c1C.O=S(=O)([O-])C(F)(F)F.O=S(=O)([O-])C(F)(F)F.[Ir+3].c1ccc2cc3nc4c5cccnc5c5ncccc5c4nc3cc2c1 [[(η^5-C5Me5)Ir((NMe2)2CS)(dppn)](CF3SO3)2]
in vitro cytotoxic activity towards MCF-7 (in words) [1]: possess in vitro cytotoxic activity | in vitro cytotoxic activity towards HT-29 (in words) [10]: possess in vitro cytotoxic activity

Cc1c(C)c(-c2ccccc2)[c-](C)c1C.[Cl-].[Ir+3].[c-]1ccccc1-c1ccccn1 (stereo not drawn) [ZL107, [(η^5-C5Me4C6H5)(2-phpy)Cl]]
guanine adducts formed [4]: 100% | IC50 [2]: 2140 ± 500 nM | hydrolysis (in words) [3]: rapid hydrolysis

Cc1c(C)c(C)[c-](C)c1C.Cc1c[c-]c(-c2ccccn2)cc1.[Cl-].[Ir+3] [ZL69, [(η^5-C5Me5)Ir(tpy)Cl]]
guanine adducts formed [4]: 100% | IC50 [2]: 3280 ± 140 nM | hydrolysis (in words) [3]: rapid hydrolysis

[(Cp^xdiPh)Rh(2-phenylbipyridyl)Cl]Cl [JS39]
relative activity against A2780 (in words) [9]: most active

Cc1c(C)c(C)[c-](C)c1C.O=S(=O)([O-])C(F)(F)F.[Cl-].[Ir+3].c1ccc2nc3c4cccnc4c4ncccc4c3nc2c1 [[(η^5-C5Me5)IrCl(dppz)](CF3SO3)]
in vitro cytotoxic activity towards MCF-7 (in words) [1]: possess in vitro cytotoxic activity | in vitro cytotoxic activity towards HT-29 (in words) [10]: possess in vitro cytotoxic activity

Cc1c(C)c(-c2ccc(-c3ccccc3)cc2)[c-](C)c1C.F[P-](F)(F)(F)(F)F.[Cl-].[Ir+3].c1cnc2c(c1)ccc1cccnc12 (stereo not drawn) [ZL54, [(η^5-C5Me4C6H4C6H5)Ir(phen)Cl]PF6]
k (hydrolysis) ([11]; 278 K): 0.0179 min⁻¹ | k (hydrolysis) ([11]; 288 K): 0.0352 min⁻¹ | k (hydrolysis) ([11]; 293 K): 0.0516 min⁻¹ | Ea (Arrhenius activation energy of hydrolysis) ([11]; from Arrhenius plot): 45.6 kJ/mol | ΔH^‡ (activation enthalpy of hydrolysis) ([11]; from Eyring plot): 43.4 kJ/mol | ΔS^‡ (activation entropy of hydrolysis) ([11]; from Eyring plot): −121.2 J K^−1mol^−1 | Reaction with 9-EtG, extent of adduct formation ([4]; 10 min, 1 mM, 1 mol equiv 9-EtG (ZL33A: 2 mol equiv), D2O): 62.2% | Reaction with 9-EtA, extent of adduct formation ([12]; 10 min): 0% | Reaction with 9-EtA, extent of adduct formation ([12]; 24 h): 0% | IC50 [2]: 720 nM | IC50 ([13]; 72 h incubation, MTT): 1580 ± 400 nM | times more active than cisplatin ([13]; A549): ~3.7 times | IC50 [14]: 690 ± 40 nM | IC50 ([15]; 72 h incubation, MTT): 1380 ± 200 nM | times more active than cisplatin ([15]; SW480): about 6.7 times

[(Cp^xPh)Rh(2-Phenylbipyridyl)Cl]Cl [JS29]
relative activity against A2780 (in words) [9]: most active
